The record followed here is patent US11878965B2, “Inhibitors of peptidylarginine deiminases” (Gilead Sciences, Inc., priority 2020, dated 2024).

Molecules are shown by their SMILES.

For one assay, the target named is human PAD4 (Homo sapiens (Human), UniProt Q9UM07). The experiment in a line: In Vitro PAD4 BAEE Biochemical Assay. To be noted: human PAD4, BAEE substrate; 5 nM PAD4, 2 mM calcium chloride, 3 mM BAEE; geometric mean of multiple experiments. The method, boiled down: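 Deimination of BAEE substrate (3 mM) measured as ammonia via o-phthalaldehyde–DTT isoindole fluorescence, 405/535 nm. Tag-free bacterially expressed human PAD4 at 5 nM with 2 mM calcium chloride, pH 7.6 MOPS buffer, 30 min compound preincubation then 2 h reaction, both at 25 °C.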
Chain of human PAD4 (Q9UM07 2-663): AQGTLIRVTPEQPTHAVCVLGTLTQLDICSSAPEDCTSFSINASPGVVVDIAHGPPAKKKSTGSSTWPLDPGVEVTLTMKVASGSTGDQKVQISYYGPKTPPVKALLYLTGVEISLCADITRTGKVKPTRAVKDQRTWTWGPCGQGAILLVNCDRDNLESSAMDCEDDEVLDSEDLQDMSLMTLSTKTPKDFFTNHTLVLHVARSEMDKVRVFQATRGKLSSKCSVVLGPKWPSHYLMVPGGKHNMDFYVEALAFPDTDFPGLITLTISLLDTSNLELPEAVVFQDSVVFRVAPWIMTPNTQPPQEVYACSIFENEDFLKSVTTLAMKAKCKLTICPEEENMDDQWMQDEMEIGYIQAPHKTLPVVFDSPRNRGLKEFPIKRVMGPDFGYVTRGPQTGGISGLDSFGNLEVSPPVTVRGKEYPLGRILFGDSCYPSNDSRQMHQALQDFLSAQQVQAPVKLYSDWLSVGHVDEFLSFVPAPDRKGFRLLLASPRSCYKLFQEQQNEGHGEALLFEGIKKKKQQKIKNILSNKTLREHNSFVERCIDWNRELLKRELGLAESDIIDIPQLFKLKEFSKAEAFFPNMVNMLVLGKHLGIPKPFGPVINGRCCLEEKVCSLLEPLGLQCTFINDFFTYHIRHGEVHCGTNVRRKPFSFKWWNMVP
For the compound `COC(=O)Nc1ccc2cc(-c3nc4cc(C(=O)N5CCC[C@@H](N)C5)cc(OC)c4n3C)n(CC3CC3)c2n1` [Example 108, (R)-methyl (2-(5-(3-aminopiperidine-1-carbonyl)-7-methoxy-1-methyl-1H-benzo[d]imidazol-2-yl)-1-(cyclopropylmethyl)-1H-pyrrolo[2,3-b]pyridin-6-yl)carbamate], the IC50 came to 5760 nM.

On to `COc1cc(C(=O)N2CCC[C@@H](N)C2)cc2nc(-c3cc4ccc(N5[C@@H](C)CCCS5(=O)=O)nc4n3CC3CC3)n(C)c12` [Example 105, ((R)-3-aminopiperidin-1-yl)(2-(1-(cyclopropylmethyl)-6-((S)-3-methyl-1,1-dioxido-1,2-thiazinan-2-yl)-1H-pyrrolo[2,3-b]pyridin-2-yl)-7-methoxy-1-methyl-1H-benzo[d]imidazol-5-yl) methanone], for which the IC50 amounted to 29.6 nM.

As to `COc1cc(C(=O)N2CCC[C@@H](N)[C@H]2C)cc2nc(-c3cc4ccc(N(C5CC5)S(C)(=O)=O)nc4n3CC3CC3)n(C)c12` [Example 31, N-(2-(5-((2R,3R)-3-amino-2-methylpiperidine-1-carbonyl)-7-methoxy-1-methyl-1H-benzo[d]imidazol-2-yl)-1-(cyclopropylmethyl)-1H-pyrrolo [2,3-b]pyridin-6-yl)-N-cyclopropylmethanesulfonamide], the IC50 came to 110 nM.

Take `C[C@H]1CCCS(=O)(=O)N1c1ccc2cc(-c3nc4cc(C(=O)N5CCC[C@@H](N)C5)ccc4n3C3CC3)n(CC3CC3)c2n1` [Example 99, ((R)-3-aminopiperidin-1-yl)(1-cyclopropyl-2-(1-(cyclopropylmethyl)-6-((S)-3-methyl-1,1-dioxido-1,2-thiazinan-2-yl)-1H-pyrrolo[2,3-b]pyridin-2-yl)-1H-benzo[d]imidazol-5-yl) methanone]: the IC50 turned out to be 28.4 nM.

As for `COc1cc(C(=O)N2CCC[C@@H](N)C2)cc2nc(-c3cc4ccc(N(CC(F)(F)F)S(C)(=O)=O)nc4n3CC3CC3)n(C)c12` [Example 16, (R)-N-(2-(5-(3-aminopiperidine-1-carbonyl)-7-methoxy-1-methyl-1H-benzo[d]imidazol-2-yl)-1-(cyclopropylmethyl)-1H-pyrrolo [2,3-b]pyridin-6-yl)-N-(2,2,2-trifluoroethyl) methanesulfonamide], the IC50 stood at 316 nM.

In the case of `CCN(C(=O)OC)c1ccc2cc(-c3nc4cc(C(=O)N5CCC[C@@H](N)C5)ccc4n3C3CC3)n(CC3CC3)c2n1` [Example 112, (R)-methyl (2-(5-(3-aminopiperidine-1-carbonyl)-1-cyclopropyl-1H-benzo[d]imidazol-2-yl)-1-(cyclopropylmethyl)-1H-pyrrolo [2,3-b]pyridin-6-yl) (ethyl)carbamate], the half-inhibitory concentration (IC50) was determined as 5150 nM.

For `COc1cc(C(=O)N2C[C@H](N)CC[C@@H]2C)cc2nc(-c3cc4ccc(N(C(F)F)S(C)(=O)=O)nc4n3CC3CC3)n(C34CC(C3)C4)c12` [Example 48, N-(2-(5-((2S,5R)-5-amino-2-methylpiperidine-1-carbonyl)-1-(bicyclo[1.1.1]pentan-1-yl)-7-methoxy-1H-benzo[d]imidazol-2-yl)-1-(cyclopropylmethyl)-1H-pyrrolo[2,3-b]pyridin-6-yl)-N-(difluoromethyl) methane sulfonamide], the IC50 was determined as 2130 nM.

In the case of `COc1cc(C(=O)N2CCCC3(CCN3)C2)cc2nc(-c3cc4ccc(N(C(F)F)S(C)(=O)=O)nc4n3CC3CC3)n(C)c12` (centres unmarked) [Example 75, N-(1-(cyclopropylmethyl)-2-(7-methoxy-1-methyl-5-(1,6-diazaspiro[3.5]nonane-6-carbonyl)-1H-benzo[d]imidazol-2-yl)-1H-pyrrolo[2,3-b]pyridin-6-yl)-N-(difluoromethyl) methanesulfonamide], the IC50 came out at 50000 nM.

As for `COc1cc(C(=O)N2CCC[C@@H](N)C2)cc2nc(-c3cc4ccc(N(C5CC5)S(=O)(=O)C5CC5)nc4n3CC3CC3)n(C)c12` [Example 26, (R)-N-(2-(5-(3-aminopiperidine-1-carbonyl)-7-methoxy-1-methyl-1H-benzo[d]imidazol-2-yl)-1-(cyclopropylmethyl)-1H-pyrrolo [2,3-b]pyridin-6-yl)-N-cyclopropylcyclo-propanesulfonamide], the IC50 is 106 nM.

Regarding `COc1cc(C(=O)N2C[C@H](N)[C@@H]3CC[C@H]2C3)cc2nc(-c3cc4ccc([C@@H](C)NC(=O)c5ccccc5)nc4n3CC3CC3)n(C)c12` [Example 222, N-((R)-1-(2-(5-((1S,4R,5R)-4-amino-2-azabicyclo[3.2.1]octane-2-carbonyl)-7-methoxy-1-methyl-1H-benzo[d]imidazol-2-yl)-1-(cyclopropylmethyl)-1H-pyrrolo[2,3-b]pyridin-6-yl)ethyl)benzamide], the IC50 turned out to be 53.5 nM.

For `C[C@@H](NC(=O)[C@@H]1CC1(F)F)c1ccc2cc(-c3nc4cc(C(=O)N5C[C@H](N)[C@@H]6CC[C@H]5C6)cc(F)c4n3C3CC3)n(CC3CC3)c2n1` [Example 226, (S)-N-((R)-1-(2-(5-((1S,4R,5R)-4-amino-2-azabicyclo[3.2.1]octane-2-carbonyl)-1-cyclopropyl-7-fluoro-1H-benzo[d]imidazol-2-yl)-1-(cyclopropylmethyl)-1H-pyrrolo[2,3-b]pyridin-6-yl)ethyl)-2,2-difluorocyclopropane-1-carboxamide], the IC50 turned out to be 53.2 nM.

For the compound `COc1cc(C(=O)N2[C@H]3CC[C@@H]2[C@H](N)C3)cc2nc(-c3cc4ccc([C@@H](C)NC(=O)C(C)(C)C)nc4n3CC3CC3)n(C)c12` [Example 120, N—((R)-1-(2-(5-((1R,2R,4S)-2-amino-7-azabicyclo[2.2.1]heptane-7-carbonyl)-7-methoxy-1-methyl-1H-benzo[d]imidazol-2-yl)-1-(cyclopropylmethyl)-1H-pyrrolo[2,3-b]pyridin-6-yl)ethyl)pivalamide], the IC50 was 60.6 nM.

With `COc1cc(C(=O)N2C[C@H](N)CC[C@@H]2C)cc2nc(-c3cc4ccc(-c5c(C)ccnc5-c5cnc(C)s5)nc4n3CC3CC3)n(C)c12` [Example 268, ((2S,5R)-5-amino-2-methylpiperidin-1-yl)(2-(1-(cyclopropylmethyl)-6-(4-methyl-2-(2-methylthiazol-5-yl)pyridin-3-yl)-1H-pyrrolo[2,3-b]pyridin-2-yl)-7-methoxy-1-methyl-1H-benzo[d]imidazol-5-yl)methanone], the IC50 amounted to 386 nM.

As for `COc1cc(C(=O)N2CC3(CCNC3)C2)cc2nc(-c3cc4ccc(N(C(F)F)S(C)(=O)=O)nc4n3CC3CC3)n(C)c12` [Example 67, N-(1-(cyclopropylmethyl)-2-(7-methoxy-1-methyl-5-(2,6-diazaspiro[3.4]octane-2-carbonyl)-1H-benzo[d]imidazol-2-yl)-1H-pyrrolo[2,3-b]pyridin-6-yl)-N-(difluoromethyl) methanesulfonamide], the IC50 stood at 5080 nM.

Take `COc1cc(C(=O)N2CC[C@@H]3OCCN[C@@H]3C2)cc2nc(-c3cc4ccc(N(C(F)F)S(C)(=O)=O)nc4n3CC3CC3)n(C3CC3)c12` [Example 69, N-(2-(1-cyclopropyl-7-methoxy-5-((4aR,8aS)-octahydro-2H-pyrido[4,3-b][1,4]oxazine-6-carbonyl)-1H-benzo[d]imidazol-2-yl)-1-(cyclopropylmethyl)-1H-pyrrolo[2,3-b]pyridin-6-yl)-N-(difluoromethyl) methanesulfonamide]: the IC50 is 50000 nM.

As for `COc1cc(C(=O)N2CCC[C@@H](N)C2)cc2nc(-c3cc4ccc(N5CCCNS5(=O)=O)nc4n3CC3CC3)n(C)c12` [Example 107, (R)-(3-aminopiperidin-1-yl)(2-(1-(cyclopropylmethyl)-6-(1,1-dioxido-1,2,6-thiadiazinan-2-yl)-1H-pyrrolo[2,3-b]pyridin-2-yl)-7-methoxy-1-methyl-1H-benzo[d]imidazol-5-yl) methanone], the IC50 is 538 nM.

As to `COc1cc(C(=O)N2CCC[C@@H](N)[C@H]2C)cc2nc(-c3cc4ccc(N=S(C)(C)=O)nc4n3CC3CC3)n(C)c12` [Example 95, ((2-(5-((2R,3R)-3-amino-2-methylpiperidine-1-carbonyl)-7-methoxy-1-methyl-1H-benzo[d]imidazol-2-yl)-1-(cyclopropylmethyl)-1H-pyrrolo [2,3-b]pyridin-6-yl)imino)dimethyl-16-sulfanone], the IC50 was 1570 nM.

In the case of `COc1cc(C(=O)N2C[C@H](N)CCN2C)cc2nc(-c3cc4ccc([C@@H](C)NC(=O)c5c(F)cccc5F)nc4n3CC3CC3)n(C)c12` [Example 210, N-((R)-1-(2-(5-((R)-5-amino-2-methylhexahydropyridazine-1-carbonyl)-7-methoxy-1-methyl-1H-benzo[d]imidazol-2-yl)-1-(cyclopropylmethyl)-1H-pyrrolo[2,3-b]pyridin-6-yl)ethyl)-2,6-difluorobenzamide], the IC50 came out at 129 nM.

As for `COc1cc(C(=O)N2C[C@H](N)CCN2C)cc2nc(-c3cc4ccc([C@@H](C)NC(=O)C5(CC(F)F)CC5)nc4n3CC3CC3)n(C)c12` [Example 193, N-((R)-1-(2-(5-((R)-5-amino-2-methylhexahydropyridazine-1-carbonyl)-7-methoxy-1-methyl-1H-benzo[d]imidazol-2-yl)-1-(cyclopropylmethyl)-1H-pyrrolo[2,3-b]pyridin-6-yl)ethyl)-1-(2,2-difluoroethyl)cyclopropane-1-carboxamide], the IC50 is 142 nM.

The same assay, now with this note: recombinant PAD4 5 nM, 2 mM calcium chloride, 3 mM BAEE substrate; geometric mean of multiple experiments.
For the compound `COc1cc(C(=O)N2C[C@H](N)[C@@H]3CC[C@H]2C3)cc2nc(-c3cc4ccc([C@@H](C)NC(=O)c5cnc(C(F)(F)F)nc5)nc4n3CC3CC3)n(C)c12` [Example 314, N-((R)-1-(2-(5-((1S,4R,5R)-4-amino-2-azabicyclo[3.2.1]octane-2-carbonyl)-7-methoxy-1-methyl-1H-benzo[d]imidazol-2-yl)-1-(cyclopropylmethyl)-1H-pyrrolo[2,3-b]pyridin-6-yl)ethyl)-2-(trifluoromethyl)pyrimidine-5-carboxamide], the IC50 stood at 140 nM.

As a reminder, the IC50 is the concentration that inhibits the measured activity by half.
